Measurements from patent publication US20080262228A1, “Metabolites of 5-fluoro-8- quinoline and methods of preparation and uses thereof” (Wyeth, priority 2006, published 2008).
Several values for one entry are separate records, joined by “and”; a condition that tells them apart may be missing. Equal entries are not always repeated. Marks after values point to notes of the source that are not given here.

Assay: In vivo metabolism of [14C]COMPOUND I in Sprague-Dawley rats, single oral 5 mg/kg dose
Parameters: species or system rat
Details: 5 mg/kg oral
Method: Dose preparation, animal dosing, and specimen collection were performed at Wyeth Research, Collegeville, Pa. The vehicle contained 2% (w/v) polysorbate 80, NF and 0.5% (w/v) methylcellulose (4000 cps) in water. [^14C]COMPOUND I trisuccinate salt (36.6 mg) and non-labeled COMPOUND I trisuccinate salt (26.7 mg) were dissolved in 1 mL of ethanol and suspended in 35 mL of the vehicle with stirring. The target [^14C]COMPOUND I concentration was approximately 1 mg/mL as free base and 70 μCi/mL with a target specific activity of 70 μCi/mg. Three pre- and post-dose aliquots (100 μL) were taken for the determination of radiochemical purity, drug and radioactivity concentrations and specific activity (see below).
Male rats weighing from 323 to 354 g and female rats weighing from 270 to 317 g at the time of dosing were purchased from Charles River Laboratories (Wilmington, Mass.). Non-fasted rats were given a single 5 mg/kg (˜350 μCi/kg) dose of [^14C]COMPOUND I at a volume of 5.0 mL/kg via intragastric gavage. Three rats were dosed for each time point. Animals were provided Purina rat chow and water ad libitum, and were kept individually in metabolism cages.
Blood samples were collected at 1, 3, 6 and 24 hr from male rats and at 1 and 3 hr from female rats after dose administration by cardiac puncture into tubes containing EDTA as the anticoagulant and placing them on ice. Triplicate aliquots (50 μL) of whole blood were removed and plasma was immediately obtained from the remaining blood by centrifugation at 4° C. Whole brain samples were collected after saline perfusion at 1, 3, 6 and 24 hr post-dose from male rats and at 1 and 3 hr post-dose from female rats. Urine samples were collected on dry ice from male rats at intervals of 0-6 and 6-24 hr post-dose. Feces were collected from male rats at 0-24 hr post-dose at room temperature. The biological specimens and aliquots of the dose suspension were stored at approximately −70° C. until analysis.
Triplicate aliquots of diluted dose (20 μL), dose fractions (10 μL), and plasma (50 μL) and urine (100 μL) from individual rats were analyzed for radioactivity concentrations. Radioactivity determinations were made with a Tri-Carb Model 3100 TR liquid scintillation counter (LSC) (Perkin Elmer) using 5 mL of Ultima Gold as the scintillation fluid.
Brain and fecal samples from individual rats were weighed and homogenized in water at a volume-to-weight ratio of about 3:1 and 5:1, respectively, with a Polytron PT homogenizer at ice-cold temperature. Duplicate aliquots of blood (50 μL), brain homogenates (0.2 g) and fecal homogenates (0.2 g) were placed on Combusto-cones with Combusto-pads and allowed to dry overnight. Samples were combusted with a model 307 Tri-Carb Sample Oxidizer, equipped with an Oximate-80 Robotic Automatic Sampler (Perkin Elmer). The liberated ^14CO2 was trapped with Carbo-Sorb E carbon dioxide absorber, mixed with PermaFluor® E^+ liquid scintillation cocktail, and counted in a Tri-Carb Model 3100 TR/LL liquid scintillation counter (Perkin Elmer).
Plasma samples were pooled by equal volumes from three animals at each time point (1, 3, 6 and 24 hr for males; 1 and 3 hr for females). Aliquots of 2 mL of pooled plasma were mixed with 2 mL of acetonitrile, placed on ice for about 10 min, and then centrifuged at 4° C. The supernatant was transferred to a clean tube. The protein pellets were extracted two more times with 4 mL of acetonitrile. The supernatants from precipitation and extraction of each sample were pooled, mixed, and evaporated at 22° C. under nitrogen in a TurboVap LV evaporator (Caliper Life Sciences, Hopkinton, Mass.) to about 1.0 mL. The concentrated extract was centrifuged, the supernatant volume measured and the extraction efficiency was determined by analyzing duplicate 10 μL aliquots for radioactivity concentrations.

[1] = female rats, 1 hr, individual rats, 5 mg/kg
[2] = female rats, 1 hr, mean ± SD, 5 mg/kg
[3] = female rats, 3 hr, individual rats, 5 mg/kg
[4] = female rats, 3 hr, mean ± SD, 5 mg/kg
[5] = male rats, 1 hr, individual rats, 5 mg/kg
[6] = male rats, 1 hr, mean ± SD, 5 mg/kg
[7] = male rats, 3 hr, individual rats, 5 mg/kg
[8] = male rats, 3 hr, mean ± SD, 5 mg/kg
[9] = male rats, 6 hr, individual rats, 5 mg/kg
[10] = male rats, 6 hr, mean ± SD, 5 mg/kg
[11] = male rats, 24 hr, individual rats, 5 mg/kg
[12] = male rats, 24 hr, mean ± SD, 5 mg/kg

In the case of `COc1cc(N2CCN(C3CCN(c4ccc(F)c5cccnc45)CC3)CC2)c2ncccc2c1` [[^14C]COMPOUND I, [piperazine-^14C(U)]-5-fluoro-8-(4-(4-(6-methoxyquinolin-8-yl)piperazin-1-yl)piperidin-1-yl)quinoline trisuccinate], the “Concentration of Total Radioactivity in Plasma” value (from here on “Concentration … in Plasma”) [1] was 1274 ng equivalents/mL and 854 ng equivalents/mL and 383 ng equivalents/mL, the “Concentration of Total Radioactivity in Whole Blood” value (from here on “Concentration … in Whole Blood”) [1] was 815 ng equivalents/mL and 549 ng equivalents/mL and 536 ng equivalents/mL and the “Brain Radioactivity Concentrations” value (female rats, 1 hr, individual, 5 mg/kg) was 149 ng equivalents/g and 121 ng equivalents/g and 128 ng equivalents/g. The “Concentration … in Whole Blood” value (female rats, 1 hr, mean ± SD) was 633 ± 157 ng equivalents/mL, the “Brain Radioactivity Concentrations” value [2] was 133 ng equivalents/g and 133 ± 15 ng equivalents/g and the “Concentration … in Plasma” value [2] was 837 ng equivalents/mL and 837 ± 446 ng equivalents/mL. For the same compound, the “Concentration … in Plasma” value [3] was 504 ng equivalents/mL and 298 ng equivalents/mL and 436 ng equivalents/mL, the “Concentration … in Whole Blood” value [3] was 326 ng equivalents/mL and 206 ng equivalents/mL and 287 ng equivalents/mL and the “Brain Radioactivity Concentrations” value (female rats, 3 hr, individual, 5 mg/kg) was 54 ng equivalents/g and 30 ng equivalents/g and 61 ng equivalents/g. The “Concentration … in Whole Blood” value (female rats, 3 hr, mean ± SD) was 273 ± 61.2 ng equivalents/mL, the “Brain Radioactivity Concentrations” value [4] was 49 ng equivalents/g and 49 ± 16 ng equivalents/g and the “Concentration … in Plasma” value [4] was 412 ng equivalents/mL and 412 ± 105 ng equivalents/mL. For the same compound, the “dose excreted in urine” value (male rats, 0-24 hr urine) was 3.6%, the “Concentration … in Plasma” value [5] was 366 ng equivalents/mL and 295 ng equivalents/mL and 887 ng equivalents/mL and the “Concentration … in Whole Blood” value [5] was 228 ng equivalents/mL and 169 ng equivalents/mL and 251 ng equivalents/mL. For the same compound, the “Brain Radioactivity Concentrations” value (male rats, 1 hr, individual, 5 mg/kg) was 48 ng equivalents/g and 42 ng equivalents/g and 63 ng equivalents/g, the “Concentration … in Whole Blood” value (male rats, 1 hr, mean ± SD) was 216 ± 42.3^a ng equivalents/mL and the “Brain Radioactivity Concentrations” value [6] was 51 ng equivalents/g and 51 ± 11^c ng equivalents/g. The “Concentration … in Plasma” value [6] was 516 ng equivalents/mL and 516 ± 323 ng equivalents/mL, the “Concentration … in Plasma” value [7] was 172 ng equivalents/mL and 256 ng equivalents/mL and 144 ng equivalents/mL and the “Concentration … in Whole Blood” value [7] was 115 ng equivalents/mL and 166 ng equivalents/mL and 98.6 ng equivalents/mL. The “Brain Radioactivity Concentrations” value (male rats, 3 hr, individual, 5 mg/kg) was 22 ng equivalents/g and 31 ng equivalents/g and 23 ng equivalents/g, the “Concentration … in Whole Blood” value (male rats, 3 hr, mean ± SD) was 127 ± 35.1^a ng equivalents/mL and the “Brain Radioactivity Concentrations” value [8] was 25 ng equivalents/g and 25 ± 4.9 ng equivalents/g. For the same compound, the “Concentration … in Plasma” value [8] was 191 ng equivalents/mL and 191 ± 58.3^a ng equivalents/mL, the “Concentration … in Plasma” value [9] was 112 ng equivalents/mL and 114 ng equivalents/mL and 163 ng equivalents/mL and the “Concentration … in Whole Blood” value [9] was 77.2 ng equivalents/mL and 75.5 ng equivalents/mL and 118 ng equivalents/mL. For the same compound, the “Brain Radioactivity Concentrations” value (male rats, 6 hr, individual, 5 mg/kg) was 15 ng equivalents/g and 13 ng equivalents/g and 19 ng equivalents/g, the “Concentration … in Whole Blood” value (male rats, 6 hr, mean ± SD) was 90.2 ± 24.1 ng equivalents/mL and the “Brain Radioactivity Concentrations” value [10] was 16 ng equivalents/g and 16 ± 3.2 ng equivalents/g. The “Concentration … in Plasma” value [10] was 130 ng equivalents/mL and 130 ± 28.9 ng equivalents/mL, the “Concentration … in Plasma” value [11] was 23.3 ng equivalents/mL and 24.2 ng equivalents/mL and 26.7 ng equivalents/mL and the “Concentration … in Whole Blood” value [11] was 22.8 ng equivalents/mL and 26.2 ng equivalents/mL and 28.0 ng equivalents/mL. For the same compound, the “Brain Radioactivity Concentrations” value (male rats, 24 hr, individual, 5 mg/kg) was 7.1 ng equivalents/g and 5.3 ng equivalents/g and 6.1 ng equivalents/g, the “Concentration … in Whole Blood” value (male rats, 24 hr, mean ± SD) was 25.7 ± 2.64 ng equivalents/mL and the “Brain Radioactivity Concentrations” value [12] was 6.2 ng equivalents/g and 6.2 ± 0.9 ng equivalents/g. For the same compound, the “Concentration … in Plasma” value [12] was 24.7 ng equivalents/mL and 24.7 ± 1.76 ng equivalents/mL and the “administered radioactivity recovered in feces” value (male rats, first 24 hr, average) was 81.9%.
